Test results taken from PubChem BioAssay (NCI).
Where “and” joins values, the source holds several entries; their conditions need not be identical. Identical values can stand only once.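 A five-concentration, 48-hour dose response in 96-well plates underlies each endpoint, interpolated linearly between surrounding concentrations. Abbreviation: GI50, concentration required for 50% inhibition of growth. TGI: concentration producing complete growth inhibition.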

The compounds below were run on SN12C renal (assay: inhibition of tumour cell growth, NCI panel, 48 h).
`COc1cc2c(c3oc4c(O)cccc4c(=O)c13)CC(C(C)(O)CO)O2` (stereo unspecified) was tested, and the TGI was over 100 µM.
Work on `Cc1c(C(=O)C/C(=N/NC(=O)c2ccccc2O)C(=O)Nc2ccccc2C(C)C)[n+](=O)c2ccccc2n1[O-]` yielded a TGI of over 100 µM.
`CCCCCCCCCCCC(=O)OCCOCCOCCOCCOCCOCc1ccccc1` showed a TGI of over 100 µM.
`CCCC1C(=O)CCc2c(OC)ccc(OC)c21` (stereo unspecified) gave a TGI of over 100 µM.
For `O=C(CCc1nc(=S)[nH][nH]1)Nc1cc(Cl)c(Cl)cc1Cl`, the TGI was over 100 µM.
Work on `O=C(Nc1nc2ccc([N+](=O)[O-])cc2s1)C(=O)C(C1OC(=O)c2ccccc21)[N+](=O)[O-]` (stereo unspecified) yielded a TGI of over 100 µM.
In the case of `O=C(CCc1nc(=S)[nH][nH]1)Nc1ccc(Cl)c(Cl)c1`, the TGI is reported as over 100 µM.
Compound `COC(=O)C1(C(C)C)CCc2c(OC)ccc(OC)c2C1=O` (stereo unspecified) has a TGI of over 100 µM.
With `Cc1ccc(Cl)c2c(N=Nc3ccccc3[N+](=O)[O-])c(O)[nH]c12` the TGI was over 100 µM.
Compound `C=CCOc1ccc2c(C)cc(=O)oc2c1C` has a TGI of over 100 µM.
In the case of `COC(=O)c1ccccc1NC(=O)C(=O)Cc1nc2c3c(ccc2[nH]c1=O)C(=O)c1ccccc1C3=O`, the TGI is reported as over 100 µM.
`Cc1ccc(S(=O)(=O)OC[C@@H]2CO2)cc1` gave a TGI of over 100 µM.
For `COc1cc2cc(OC)c3cc4c(cc3c2c(OC)c1OC)OCO4`, the TGI was over 100 µM.
`O=C(CC(=O)c1cccc2ccccc12)C(=O)Nc1ccc(Cl)cc1` gave a TGI of over 100 µM.
`C=CCO[C@H]1CO[C@H]2[C@@H]1OC[C@@H]2Oc1ccc(Nc2ccnc(Nc3ccc(O[C@H]4CO[C@H]5[C@@H]4OC[C@@H]5OCC=C)c(Cl)c3)n2)cc1Cl` gave a GI50 of 1.68 µM and a TGI of 3.33 µM.
For `CC1(C(=O)O)CCC[C@@]2(C)C1CC[C@@]1(C)c3cocc3CCC21` (stereo partly specified), the TGI was over 100 µM.
Compound `CCN(CC)CCSc1c2ccccc2nc2cc(NCC(=O)Nc3ccccc3-c3ccccc3NC(=O)CNc3ccc4c(SCCN(CC)CC)c5ccccc5nc4c3)ccc12` has a TGI of over 100 µM.
With `Cc1nc2c(ccc3ncccc32)[nH]1` the TGI was over 100 µM.
With `O=C(CCNC12CC3CC(CC(C3)C1)C2)c1ccccc1` the TGI was 36.3 µM.
Compound `CCN1CCN(Cc2ccc(NC(=O)c3cccc(C#Cc4cccc5[nH]nc(N)c45)c3)cc2C(F)(F)F)CC1` has a GI50 of 0.584 µM and a TGI of 1.93 µM.
In the case of `Cc1cc(N(CCC#N)CCC#N)ccc1N=Nc1ccc(S(N)(=O)=O)cc1`, the TGI is reported as over 100 µM.
`CC(C)=CCC\C(C)=C/C=C/C(C)=C\C=C\C(C)=C/C=C/C=C(C)\C=C\C=C(C)/C=C/C=C(/C)CCC=C(C)C` gave a TGI of over 100 µM.
In the case of `CC(=O)[CH-]C(=O)c1ccccc1.CC(=O)[CH-]C(=O)c1ccccc1.CN(C)c1ccc([O-])cc1.CN(C)c1ccc([O-])cc1.Cl.[Ti+4]`, the GI50 is reported as 23.7 µM and the TGI is reported as over 31.6 µM.
With `CC1(C)C(=O)/C=C\C(=O)C(C)(C)C2=CC=C(O2)C(C)(C)C(=O)/C=C\C(=O)C(C)(C)C2=CC=C1O2` the TGI was over 100 µM.
Work on `NC(=O)NO.O.O.O.O.O.O.O.O.O.O.O.[Ge].[Ge].[Ge].[Ge].[Ge].[O]=[Ge].[O]=[Ge].[O]=[Ge].[O]=[Ge].[O]=[Ge][OH]` yielded a TGI of over 100 µM.
Compound `CN(C)C(=S)N=C(Nc1ccccc1)Nc1ccccc1` has a TGI of over 100 µM.
For `COC(=O)CC[N+]1=CCC(c2ccccc2)(c2ccccc2)O1`, the TGI was over 100 µM.
`CCC[CH2][Sn]([CH2]CCC)([S]c1cccc2cccnc12)[S]c1cccc2cccnc12` gave a GI50 of 0.24 µM and a TGI of 0.822 µM.
In the case of `OCC1=CC(NC2CC(CO)C(O)C(O)C2O)C(O)C(O)C1O` (stereo unspecified), the TGI is reported as over 100 µM.
With `OCCN(CCO)c1ncnc2c1ncn2Cc1ccc(CCl)cc1` the GI50 was 21 µM and the TGI was 45.8 µM.
Work on `Nc1ccccc1S(=O)(=O)N(CC(=O)O)c1ccccc1` yielded a TGI of over 100 µM.
Work on `CCOC(=O)C(C)(C)Oc1ccc2c(-c3ccccc3)cc(=O)oc2c1` yielded a TGI of over 100 µM.
In the case of `CNS(=O)(=O)NNS(=O)(=O)c1ccccc1`, the TGI is reported as over 100 µM.
`Cc1cc(NS(=O)(=O)c2ccc(Nc3c4ccccc4nc4c(C(=O)N5CCN(CCOS(C)(=O)=O)CC5)cccc34)cc2)no1` showed a TGI of over 100 µM.
`O=C(O)CCC(NC(=O)c1ccc(Nc2nc3ccccc3nc2-c2cccs2)cc1)C(=O)O` (stereo unspecified) gave a TGI of over 100 µM.
`NC1=NCCC1(c1ccccc1)c1ccccn1` (stereo unspecified) gave a TGI of over 100 µM.
`CNC(=S)OCCC(C)CCCC(C)C` (stereo unspecified) gave a TGI of 30.3 µM.
Compound `COC1/C=C/OC2(C)Oc3c(C)c(O)c4c(O)c(c(/C=N/Nc5ccc([N+](=O)[O-])cc5[N+](=O)[O-])c(O)c4c3C2=O)NC(=O)C(C)=C/C=C/C(C)C(O)C(C)C(O)C(C)C(OC(C)=O)C1C` (stereo unspecified) has a GI50 of 10.2 µM and a TGI of over 50 µM.
Compound `COC(=O)/C(C#N)=C1\NC(=O)c2ccccc21` has a TGI of over 100 µM.
In the case of `Fc1ccc(NC(=S)SCc2ccc3c(c2)OCO3)cc1F`, the TGI is reported as 39.4 µM.

The compounds below were run on RPMI-8226 leukemia (assay: inhibition of tumour cell growth, NCI panel, 48 h).
For `COc1cc2c(c3oc4c(O)cccc4c(=O)c13)CC(C(C)(O)CO)O2` (stereo unspecified), the TGI was over 100 µM.
In the case of `CCCCCCCCCCCC(=O)OCCOCCOCCOCCOCCOCc1ccccc1`, the TGI is reported as over 100 µM.
`CCCC1C(=O)CCc2c(OC)ccc(OC)c21` (stereo unspecified) showed a TGI of over 100 µM.
Compound `O=C(CCc1nc(=S)[nH][nH]1)Nc1cc(Cl)c(Cl)cc1Cl` has a TGI of over 100 µM.
For `O=C(Nc1nc2ccc([N+](=O)[O-])cc2s1)C(=O)C(C1OC(=O)c2ccccc21)[N+](=O)[O-]` (stereo unspecified), the TGI was over 100 µM.
`O=C(CCc1nc(=S)[nH][nH]1)Nc1ccc(Cl)c(Cl)c1` showed a TGI of over 100 µM.
`COC(=O)C1(C(C)C)CCc2c(OC)ccc(OC)c2C1=O` (stereo unspecified) gave a TGI of over 100 µM.
With `Cc1ccc(Cl)c2c(N=Nc3ccccc3[N+](=O)[O-])c(O)[nH]c12` the TGI was over 100 µM.
Compound `C=CCOc1ccc2c(C)cc(=O)oc2c1C` has a TGI of over 100 µM.
`COC(=O)c1ccccc1NC(=O)C(=O)Cc1nc2c3c(ccc2[nH]c1=O)C(=O)c1ccccc1C3=O` was tested, and the TGI was over 100 µM.
Work on `COc1cc2cc(OC)c3cc4c(cc3c2c(OC)c1OC)OCO4` yielded a TGI of 52.9 µM.
With `O=C(CC(=O)c1cccc2ccccc12)C(=O)Nc1ccc(Cl)cc1` the TGI was over 100 µM.
In the case of `CCCCCCCCCCCCCC(=O)OC(/C=C/C(C)C)C(O)C(O)C(OC)C(=O)NC1CCCCN(C)C1=O` (stereo unspecified), the GI50 is reported as over 49 µM and the TGI is reported as 9.97 µM and > 49 µM.
Work on `CC1(C(=O)O)CCC[C@@]2(C)C1CC[C@@]1(C)c3cocc3CCC21` (stereo partly specified) yielded a TGI of over 100 µM.
Compound `CCn1c(C)nn2c(=O)c3ccccc3nc2c1=O` has a TGI of over 100 µM.
`CCOC(=O)CCC1(C(=O)OCC)CCCCC1=O` (stereo unspecified) showed a TGI of over 100 µM.
`CCN(CC)CCSc1c2ccccc2nc2cc(NCC(=O)Nc3ccccc3-c3ccccc3NC(=O)CNc3ccc4c(SCCN(CC)CC)c5ccccc5nc4c3)ccc12` was tested, and the TGI was over 100 µM.
For `Cc1nc2c(ccc3ncccc32)[nH]1`, the TGI was over 100 µM.
Work on `O=C(CCNC12CC3CC(CC(C3)C1)C2)c1ccccc1` yielded a TGI of 26.4 µM.
Compound `CCN1CCN(Cc2ccc(NC(=O)c3cccc(C#Cc4cccc5[nH]nc(N)c45)c3)cc2C(F)(F)F)CC1` has a GI50 of 0.702 µM and a TGI of 3.04 µM.
`Cc1cc(N(CCC#N)CCC#N)ccc1N=Nc1ccc(S(N)(=O)=O)cc1` was tested, and the TGI was over 100 µM.
`CC(=O)[CH-]C(=O)c1ccccc1.CC(=O)[CH-]C(=O)c1ccccc1.CN(C)c1ccc([O-])cc1.CN(C)c1ccc([O-])cc1.Cl.[Ti+4]` gave a GI50 of 16.8 µM and a TGI of over 31.6 µM.
With `NC(=O)NO.O.O.O.O.O.O.O.O.O.O.O.[Ge].[Ge].[Ge].[Ge].[Ge].[O]=[Ge].[O]=[Ge].[O]=[Ge].[O]=[Ge].[O]=[Ge][OH]` the TGI was over 100 µM.
Work on `CN(C)C(=S)N=C(Nc1ccccc1)Nc1ccccc1` yielded a TGI of over 100 µM.
With `OCC1=CC(NC2CC(CO)C(O)C(O)C2O)C(O)C(O)C1O` (stereo unspecified) the TGI was over 100 µM.
With `OCCN(CCO)c1ncnc2c1ncn2Cc1ccc(CCl)cc1` the GI50 was 17.2 µM and the TGI was over 100 µM.
Compound `Nc1ccccc1S(=O)(=O)N(CC(=O)O)c1ccccc1` has a TGI of over 100 µM.
Compound `CCOC(=O)C(C)(C)Oc1ccc2c(-c3ccccc3)cc(=O)oc2c1` has a TGI of 49.9 µM.
In the case of `CNS(=O)(=O)NNS(=O)(=O)c1ccccc1`, the TGI is reported as over 100 µM.
`Cc1cc(NS(=O)(=O)c2ccc(Nc3c4ccccc4nc4c(C(=O)N5CCN(CCOS(C)(=O)=O)CC5)cccc34)cc2)no1` was tested, and the TGI was over 100 µM.
Compound `O=C(O)CCC(NC(=O)c1ccc(Nc2nc3ccccc3nc2-c2cccs2)cc1)C(=O)O` (stereo unspecified) has a TGI of over 100 µM.
For `NC1=NCCC1(c1ccccc1)c1ccccn1` (stereo unspecified), the TGI was over 100 µM.
For `CNC(=S)OCCC(C)CCCC(C)C` (stereo unspecified), the TGI was 26.8 µM.
Work on `COC1/C=C/OC2(C)Oc3c(C)c(O)c4c(O)c(c(/C=N/Nc5ccc([N+](=O)[O-])cc5[N+](=O)[O-])c(O)c4c3C2=O)NC(=O)C(C)=C/C=C/C(C)C(O)C(C)C(O)C(C)C(OC(C)=O)C1C` (stereo unspecified) yielded a GI50 of 1.96 µM and a TGI of 14.5 µM.
Compound `COC(=O)/C(C#N)=C1\NC(=O)c2ccccc21` has a TGI of over 100 µM.

What follows are compounds tested on NCI-H460 lung (assay: inhibition of tumour cell growth, NCI panel, 48 h).
`COc1cc2c(c3oc4c(O)cccc4c(=O)c13)CC(C(C)(O)CO)O2` (stereo unspecified) was tested, and the TGI was over 100 µM.
`Cc1c(C(=O)C/C(=N/NC(=O)c2ccccc2O)C(=O)Nc2ccccc2C(C)C)[n+](=O)c2ccccc2n1[O-]` showed a TGI of over 100 µM.
`CCCCCCCCCCCC(=O)OCCOCCOCCOCCOCCOCc1ccccc1` showed a TGI of over 100 µM.
`CCCC1C(=O)CCc2c(OC)ccc(OC)c21` (stereo unspecified) showed a TGI of over 100 µM.
`O=C(CCc1nc(=S)[nH][nH]1)Nc1cc(Cl)c(Cl)cc1Cl` gave a TGI of over 100 µM.
`O=C(Nc1nc2ccc([N+](=O)[O-])cc2s1)C(=O)C(C1OC(=O)c2ccccc21)[N+](=O)[O-]` (stereo unspecified) showed a TGI of over 100 µM.
`O=C(CCc1nc(=S)[nH][nH]1)Nc1ccc(Cl)c(Cl)c1` was tested, and the TGI was over 100 µM.
Work on `COC(=O)C1(C(C)C)CCc2c(OC)ccc(OC)c2C1=O` (stereo unspecified) yielded a TGI of over 100 µM.
`Cc1ccc(Cl)c2c(N=Nc3ccccc3[N+](=O)[O-])c(O)[nH]c12` gave a TGI of over 100 µM.
`C=CCOc1ccc2c(C)cc(=O)oc2c1C` gave a TGI of over 100 µM.
